Measurements as given in ChEMBL document CHEMBL1201862, “PubChem BioAssay data set” (2004).
The source made the active and inactive calls.

What was measured:
[1] = system: Escherichia coli; experiment: microbe, parasite or virus in culture
[2] = system: Escherichia coli; experiment: microbe, parasite or virus in culture; remark: listed apart in the source
[3] = system: HEK293; experiment: cells; conditions: Homo sapiens
[4] = system: HEK293; experiment: cells; conditions: Homo sapiens; remark: listed apart in the source
[5] = system: HEK293; experiment: HEK293T cell viability loss, resazurin readout – resazurin fluorescence, cytotoxicity control for NF-kB activator project, SAR follow-up (AID 493251); format: functional, cell-based; conditions: Homo sapiens
[6] = system: Jurkat; experiment: SAR Analysis of small molecule inhibitors of T-cell specific antigen receptor-induced NF-kB activation in a Jurkat cell line using a luminescence assay - Set 2. [Related pubchem assays (depositor defined):AID435003, AID435012, AID465]; format: functional, cell-based; conditions: Homo sapiens
[7] = system: HEK293; experiment: SAR Analysis of small molecule inhibitors of T-cell specific antigen receptor-induced NF-kB activation in a HEK-293T cell line using a luminescence assay - Set 2. [Related pubchem assays (depositor defined):AID435003, AID435012, AID489026]; format: functional, cell-based; conditions: Homo sapiens
[8] = Luminescence Cell-Based Dose Confirmation HTS to Identify Inhibitors of Platelet Dense Granule Release. [Related pubchem assays: 1663 (Primary HTS), 1678 (Summary of Project)]; format: functional
[9] = Luminescence Cell-Based Dose Response HTS to Identify Inhibitors of 5'UTR Stem-Loop Driven Prion Protein mRNA Translation in H4 Neuroglioblastoma Cells. [Related pubchem assays: 1827 (Project Summary), 1813 (Primary HTS)]; format: functional
[10] = system: BJ; experiment: BJ-TERT fibroblast viability loss – cell-based, RAS-independent, luminescence, dose response (AID 1933); format: functional; conditions: Homo sapiens
[11] = off-target signal loss in HeLa-CEM21 co-culture – HeLa F-luc CTL cells, cherry-picked, counter-screen for HIV-1 Env fusion inhibitor project, dose response (AID 652040); format: functional, cell-based;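 further: potency for signal decrease marking cytotoxic or nonspecific inhibition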
[12] = HEK-293T viability loss, compound-treated – cell-based, uHTS hits, cytotoxicity control for B/T-cell NF-kB inhibitor project, dose response (AID 489019); format: functional;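 further: IC50 reflects cytotoxicity as loss of cell viability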
[13] = DRD fibroblast viability loss – cell-based, non-viral oncogenic, luminescence, dose response (AID 1934); format: functional; conditions: Homo sapiens
[14] = biological target: T1, Heat shock factor protein 1 (Mus musculus, UniProt P38532); experiment: decrease of HSF1-responsive luciferase luminescence – cell-based, NIH3T3, dose retest, confirmation (AID 2382); format: functional;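 further: NIH3T3 fibroblasts with HSF1-driven luciferase reporter stressed by proteasome inhibitor MG132; luminescence from HSF1-driven luciferase expression after 8 hours of MG132 stress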
T1 sequence (P38532 whole entry): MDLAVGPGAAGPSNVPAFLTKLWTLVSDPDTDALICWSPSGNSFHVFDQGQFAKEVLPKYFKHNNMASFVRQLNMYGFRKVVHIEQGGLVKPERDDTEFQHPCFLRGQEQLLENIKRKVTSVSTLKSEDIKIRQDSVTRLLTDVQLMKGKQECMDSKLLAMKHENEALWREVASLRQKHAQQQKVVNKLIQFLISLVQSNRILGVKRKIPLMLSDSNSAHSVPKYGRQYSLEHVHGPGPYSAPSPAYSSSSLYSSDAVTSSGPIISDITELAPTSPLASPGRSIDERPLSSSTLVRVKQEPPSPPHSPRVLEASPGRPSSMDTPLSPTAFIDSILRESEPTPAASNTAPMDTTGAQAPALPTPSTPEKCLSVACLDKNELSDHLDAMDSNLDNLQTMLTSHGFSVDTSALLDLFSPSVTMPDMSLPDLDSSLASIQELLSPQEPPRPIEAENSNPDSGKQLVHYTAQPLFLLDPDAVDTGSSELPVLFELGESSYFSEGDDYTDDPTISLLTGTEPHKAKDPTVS

[15] = system: BJ; experiment: BJ-TERT-LT-ST fibroblast viability loss – cell-based, RAS-independent, luminescence, dose response (AID 1935); format: functional; conditions: Homo sapiens;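 further: BJ fibroblasts immortalized with TERT plus LT and ST oncogenes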
[16] = cells; format: functional, cell-based
[17] = alpha-synuclein stem-loop translation blockers – luminescence, H4 neuroglioblastoma cells, dose confirmation, confirmation (AID 2454); format: functional, cell-based;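 further: H4 neuroglioblastoma cells carrying an alpha-synuclein 5'UTR luciferase reporter; potency for inhibition of the luciferase signal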
[18] = luciferase reporter signal reduction – luminescence, H4-C neuroglioblastoma cells, dose response (AID 2458); format: functional, cell-based;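 further: H4 neuroglioblastoma cells stably carrying a luciferase reporter gene fusion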
[19] = alpha-synuclein stem-loop luciferase translation blockers – H4 neuroglioma cells, luminescence, confirmation (AID 1988); format: functional, cell-based
[20] = biological target: Luciferin 4-monooxygenase (Photinus pyralis, UniProt P08659); experiment: inhibition of purified Photinus pyralis luciferase – biochemical, luminescence, dose response (AID 1891)
[21] = blockers of HIV-1 ZM109 envelope-driven cell-cell fusion – HeLa effector, CEM target cells, luciferase, cherry-pick, dose response (AID 652058); format: functional, cell-based;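 further: luciferase signal from HIV-1 Env mediated cell-cell fusion of effector and target cells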
[22] = luciferase reporter signal suppression in cells – H4 neuroglioma cells, luminescence, dose response (AID 1990); format: functional, cell-based
[23] = system: BJ; experiment: growth inhibition of engineered Ras-driven BJ cells – cell-based, alamar blue fluorescence, cherrypicked samples, dose response (AID 2631); format: functional; conditions: Homo sapiens;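 further: confirmatory dose-response assay in RAS-dependent BJ fibroblasts engineered with TERT, LT and ST, with cytotoxicity read by fluorescence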
[24] = system: BJ; experiment: cells; format: functional, cell-based; conditions: Homo sapiens
[25] = viability loss in CEM21 cells – cell-based, CellTiter-Glo luminescence, cherry-picked, cytotoxicity control for viral fusion inhibitor project, dose response (AID 652042); format: functional;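 further: potency for signal decrease meaning cytotoxicity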
[26] = system: Jurkat; experiment: blockers of NF-kB activation in T cells – Jurkat, luciferase reporter, luminescence, B- and T-cell, dose response (AID 489004); format: functional, cell-based; conditions: Homo sapiens;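 further: NF-kB luciferase reporter Jurkat cells stimulated with PMA plus ionomycin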
[27] = system: INS1; experiment: INS-1E survival protection against cytokine death – cell-based, luminescence, retest, dose response (AID 449756); format: functional; conditions: Rattus norvegicus;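 further: cell death triggered by IL-1 beta plus TNF-alpha plus IFN-gamma mixture; protective hits raise ATP signal compared with cytokine alone wells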
[28] = blockers of HIV-1 envelope-mediated cell-cell fusion – cherry-pick, dose response (AID 652057); format: functional, cell-based
[29] = HIV-1 AD8 envelope cell-cell fusion blockers – cherry-pick, dose response (AID 652062); format: functional, cell-based;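 further: luciferase signal from cell-cell fusion driven by HIV-1 clade B AD8 Env; potency is for inhibitors of fusion seen as a drop in luminescence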

Sequence of Luciferin 4-monooxygenase (P08659 whole entry, the tested form may be a part): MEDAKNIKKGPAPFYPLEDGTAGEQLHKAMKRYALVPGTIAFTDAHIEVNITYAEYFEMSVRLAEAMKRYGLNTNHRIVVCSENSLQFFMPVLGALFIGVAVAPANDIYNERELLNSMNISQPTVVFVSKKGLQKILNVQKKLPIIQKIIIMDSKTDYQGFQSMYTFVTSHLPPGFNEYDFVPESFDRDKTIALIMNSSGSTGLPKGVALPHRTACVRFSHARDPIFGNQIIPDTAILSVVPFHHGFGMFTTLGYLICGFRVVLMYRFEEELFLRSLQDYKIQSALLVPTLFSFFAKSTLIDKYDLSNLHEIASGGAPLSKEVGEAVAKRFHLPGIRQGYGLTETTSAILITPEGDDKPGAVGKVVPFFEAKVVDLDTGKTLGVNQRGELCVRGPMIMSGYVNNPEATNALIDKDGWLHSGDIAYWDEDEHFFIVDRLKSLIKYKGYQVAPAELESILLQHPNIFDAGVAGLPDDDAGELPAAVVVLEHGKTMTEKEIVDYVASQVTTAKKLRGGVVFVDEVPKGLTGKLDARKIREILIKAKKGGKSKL

Cc1cc(Cl)ccc1NC(=O)CN1CCCC1
AC50 [1]: 40 µM (active)

O=C(CCc1ccccc1)N1CCN(Cc2ccc(F)cc2Cl)CC1
AC50 [2]: 66.5 µM (active)

COc1ccc(CNCCc2c[nH]c3ccccc23)c(OC)c1OC
EC50 [3]: > 59.6 µM (inactive)
EC50 [4]: > 59.6 µM (inactive)

COc1ccc(C)cc1NC(=O)c1ccc([N+](=O)[O-])o1
IC50 [5]: > 80 µM (inactive)
IC50 [6]: 6.03 µM (active)
IC50 [7]: 75.6 µM (inactive)

Nc1nc(F)nc2c1ncn2[C@@H]1O[C@H](CO)[C@@H](O)[C@H]1O
EC50 [8]: < 0.088 µM (active)
EC50 [9]: < 0.1 µM (active)
EC50 [10]: 0.124 µM (active)
AC50 [11]: 1.4 µM (active)
IC50 [12]: > 80 µM (inactive)
EC50 [13]: 0.674 µM (active)
EC50 [14]: 5.46 µM (active)
EC50 [15]: 0.46 µM (active)
EC50 [16]: 0.084 µM (active)
EC50 [17]: 0.07 µM (active)
EC50 [18]: 0.199 µM (active)
EC50 [19]: < 0.1 µM (active)
EC50 [20]: > 112 µM (not active)
AC50 [21]: < 0.26 µM (active)
EC50 [22]: 0.242 µM (active)
EC50 [23]: 0.348 µM (active)
EC50 [24]: 1.35 µM (active)
AC50 [25]: 0.271 µM (active)
IC50 [26]: 2.35 µM (active)
AC50 [27]: 1.35 µM (active)
AC50 [28]: 0.341 µM (active)
AC50 [29]: 1.92 µM (active)
